Laboratory results reported in patent US20100009970A1, “COMPOSITIONS AND METHODS FOR TREATMENT OF VIRAL DISEASES” (Combinatorx (Singapore) Pte. Ltd., priority 2008, published 2010).
Read-outs that look alike come from different tables or passages of the source.

Experiments:
in vitro = details: human
[1] = tested on: Huh7 cells expressing a subgenomic RNA replicon of Con1 (genotype 1b) sequence origin; assay: microbe, parasite or virus in culture; details: Hepatitis C virus
[2] = Huh-7, read-out: IC50 (uM) [SG]
[3] = Huh-7, read-out: Max Effect@CC30 (inhibition)

Row | SMILES | CC50 (in vitro; CC50 (uM) [SG]) | IC90 ([1]; Huh-7) | IC50 [1, 2] | Emax [1, 3] | CC50 (in vitro; CC50 (uM)) | IC50 ([1]; Huh-7) | Emax ([1]; Huh-7, read-out: Max Effect @CC30 (inhibition))
1 | CN(C1CC1)[C@H]1CC[C@@H](c2ccc(Cl)c(Cl)c2)c2ccccc21 [N-Cyclopropyl Sertraline, (1S,4S)—N-cyclopropyl-4-(3,4-dichlorophenyl)-N-methyl-1,2,3,4-tetrahydronaphthalen-1-amine] | > 50 µM | 34.2 µM | 14.5 µM | 99% | – | – | –
2 | CSc1ccc(Oc2ccc(S(N)(=O)=O)cc2CN2CCN(c3ccccc3)CC2)cc1C [Compound 93, 4-(3-methyl-4-(methylthio)phenoxy)-3-((4-phenylpiperazin-1-yl)methyl)benzenesulfonamide] | 43.1 µM | – | 20.2 µM | – | – | – | –
3 | CC(C)C1=CC[C@@H](c2ccc(Cl)c(Cl)c2)c2ccc(C(N)=O)cc21 [(S)-5-(3,4-dichlorophenyl)-8-isopropyl-5,6-dihydronaphthalene-2-carboxamide] | > 50 µM | – | 21.5 µM | – | – | – | –
4 | CSc1ccc(Oc2ccc(S(N)(=O)=O)cc2CN2CCC(N3CCOCC3)CC2)cc1C [Compound 89, 4-(3-methyl-4-(methylthio)phenoxy)-3-((4-morpholinopiperidin-1-yl)methyl)benzenesulfonamide] | > 50 µM | 21.3 µM | 6.62 µM | – | – | – | –
5 | CN[C@H]1CC[C@@H](c2ccc(Cl)c(Cl)c2)c2ccc(C(=O)NCC(=O)OC)cc21 [methyl 2-((1S,4S)-1-(3,4-dichlorophenyl)-4-(methylamino)-1,2,3,4-tetrahydronaphthalene-6-carboxamido)acetate] | 22.9 µM | – | 6.69 µM | – | – | – | –
6 | CSc1ccc(Oc2ccc(S(N)(=O)=O)cc2CN2CC[C@H](O)C2)cc1C [Compound 66, (S)-3-((3-hydroxypyrrolidin-1-yl)methyl)-4-(3-methyl-4-(methylthio)phenoxy)benzenesulfonamide] | > 50 µM | 6.78 µM | 2.43 µM | – | – | – | –
7 | CSc1ccc(Oc2ccc(S(N)(=O)=O)cc2CN2CCN(C)CC2)cc1C [Compound 63, 4-(3-methyl-4-(methylthio)phenoxy)-3-((4-methylpiperazine-1-yl)methyl)benzenesulfonamide] | > 50 µM | 10.5 µM | 4.82 µM | – | – | – | –
8 | CSc1ccc(Oc2ccc(S(N)(=O)=O)cc2N)cc1C [Compound 58, 3-amino-4-(3-methyl-4-(methylthio)phenoxy)benzenesulfonamide] | > 50 µM | – | 15.3 µM | – | – | – | –
9 | CSc1cc(S(N)(=O)=O)c(Oc2cc(Br)ccc2CN(C)C)cc1C [Compound 72, 2-(5-bromo-2-((dimethylamino)methyl)phenoxy)-4-methyl-5-(methylthio)benzenesulfonamide] | 45 µM | – | 16.3 µM | – | – | – | –
10 | CSc1ccc(Oc2ccc(S(N)(=O)=O)cc2CN(C)C)cc1 [Compound 46, 3-((dimethylamino)methyl)-4-(4-(methylthio)phenoxy)benzenesulfonamide] | > 50 µM | 60.9 µM | 26.3 µM | 83.2% | > 50 µM | 26.3 µM | 83.2%
11 | CNC1CCC(c2cccc(OC)c2)c2ccccc21 (centres unmarked) [Sertraline B ring m-Methoxy, 4-(3-methoxyphenyl)-N-methyl-1,2,3,4-tetrahydronaphthalen-1-amine] | > 50 µM | – | 28.8 µM | – | – | – | –
12 | CSc1ccc(Oc2ccc(S(N)(=O)=O)cc2CN2CC[C@H](F)C2)cc1C [Compound 85, (S)-3-((3-fluoropyrrolidin-1-yl)methyl)-4-(3-methyl-4-(methylthio)phenoxy)benzenesulfonamide] | > 50 µM | – | 7.22 µM | – | – | – | –
13 | CN(CCO)[C@H]1CC[C@@H](c2ccc(Cl)c(Cl)c2)c2ccccc21 [N-Ethanol Sertraline, 2-(((1S,4S)-4-(3,4-dichlorophenyl)-1,2,3,4-tetrahydronaphthalen-1-yl)(methyl)amino)ethanol] | 49.8 µM | 21.9 µM | 7.8 µM | 93% | – | – | –
14 | CNCc1cc(Br)ccc1Oc1ccc(SC)cc1 [Compound 34, (5-bromo-2-(4-(methylthio)phenoxy)phenyl)-N-methylmethanamine] | 35.5 µM | – | 24.6 µM | 72.6% | – | – | –
15 | CSc1ccc(Oc2ccc(C#N)cc2CN(C)C)cc1C [Compound 7, 3-((dimethylamino)methyl)-4-(3-methyl-4-(methylthio)phenoxy)benzonitrile] | > 50 µM | 11.5 µM | 6.4 µM | 96.7% | – | – | –
16 | CSc1ccc(N2CN(C)Cc3cc(S(N)(=O)=O)ccc32)cc1C [Compound 107, 3-methyl-1-(3-methyl-4-(methylthio)phenyl)-1,2,3,4-tetrahydroquinazoline-6-sulfonamide] | > 50 µM | 12.8 µM | 4.84 µM | – | – | – | –
17 | CSc1ccc(Oc2ccc(S(N)(=O)=O)cc2CN2CCNCC2)cc1C [Compound 111, 4-(3-methyl-4-(methylthio)phenoxy)-3-(piperazin-1-ylmethyl)benzenesulfonamide] | 46.3 µM | 22.6 µM | 7.12 µM | – | – | – | –
18 | COc1ccc(NS(=O)(=O)c2ccc(Oc3ccc(SC)c(C)c3)c(CN(C)C)c2)cc1 [Compound 59, 3-((dimethylamino)methyl)-N-(4-methoxyphenyl)-4-(3-methyl-4-(methylthio)phenoxy)benzenesulfonamide] | 8.32 µM | – | 6.39 µM | – | – | – | –
19 | CSc1ccc(Oc2ccc(S(N)(=O)=O)cc2CN2CCN(c3ccccc3F)CC2)cc1C [Compound 87, 3-((4-(2-fluorophenyl)piperazin-1-yl)methyl)-4-(3-methyl-4-(methylthio)phenoxy)benzenesulfonamide] | 30.2 µM | – | 23.5 µM | – | – | – | –
20 | CSc1ccc(Oc2ccc(S(N)(=O)=O)cc2CN2CCCC2)cc1C [Compound 101, 4-(3-methyl-4-(methylthio)phenoxy)-3-(pyrrolidin-1-ylmethyl)benzenesulfonamide] | 40.6 µM | 4.74 µM | 1.74 µM | – | – | – | –
21 | CN[C@H]1CC[C@@H](c2ccc(Cl)c(Cl)c2)c2ccc(C(=O)Nc3ccccn3)cc21 [Sertraline A-ring Pyridine Carboxamide, (5S,8S)-5-(3,4-dichlorophenyl)-8-(methylamino)-N-(pyridin-2-yl)-5,6,7,8-tetrahydronaphthalene-2-carboxamide] | 7.05 µM | – | 4.43 µM | 61.3% | – | – | –
22 | COC[C@@H]1CCCN1Cc1cc(S(N)(=O)=O)ccc1Oc1ccc(SC)c(C)c1 [Compound 104, (S)-3-((2-(methoxymethyl)pyrrolidin-1-yl)methyl)-4-(3-methyl-4-(methylthio)phenoxy)benzenesulfonamide] | > 50 µM | – | 27.8 µM | – | – | – | –
23 | CNCc1ccccc1Oc1ccc(C(F)(F)F)cc1 [Compound 39, N-methyl-1-(2-(4-(trifluoromethyl)phenoxy)phenyl)methanamine] | > 50 µM | 50 µM | 37.5 µM | 91.7% | – | – | –
24 | CC(C)C1CCC(c2ccc(Cl)c(Cl)c2)c2ccccc21 (centres unmarked) [Isopropyl Sertraline, 1-(3,4-dichlorophenyl)-4-isopropyl-1,2,3,4-tetrahydronaphthalene] | > 50 µM | 32.1 µM | 9.25 ± 0.95 µM | 97.96 ± 0.06% | – | – | –
25 | CN[C@H]1CC[C@@H](c2ccc(Cl)c(Cl)c2)c2ccc(N(C)C(C)=O)cc21 [N-((5S,8S)-5-(3,4-dichlorophenyl)-8-(methylamino)-5,6,7,8-tetrahydronaphthalen-2-yl)-N-methylacetamide] | 14.6 µM | 10.7 µM | 3.79 µM | – | – | – | –
